Experimental data published in patent US12503436B2, “Compounds and compositions for treating conditions associated with STING activity” (NOVARTIS PHARMA AG, priority 2021, dated 2025).

Molecular target: STING (Homo sapiens, UniProt Q86WV6, G230A/H232R/R293Q/R71H)
Test: STING reporter assay in THP1-Dual KO-IFNAR2 cells (2′3′cGAMP stimulation, luciferase reporter)
Type: cell-based
Conditions: 15 μM 2′3′cGAMP stimulation, 24 h, read-out: Pharmaron, THP1_IFNAR2 STING 24 h Luci Normalized: GeoMean EC50
In short: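 EC50 from secreted luciferase (QUANTI-Luc Plus luminescence of supernatant) after 24 h at 37 °C, 5% CO2. Cells: THP1-Dual KO-IFNAR2, treated with compound (0.0017-100 μM final) plus lipofected 2′3′cGAMP at 15 μM final.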

Sequence of STING (Q86WV6 whole entry R71H/G230A/H232R/R293Q): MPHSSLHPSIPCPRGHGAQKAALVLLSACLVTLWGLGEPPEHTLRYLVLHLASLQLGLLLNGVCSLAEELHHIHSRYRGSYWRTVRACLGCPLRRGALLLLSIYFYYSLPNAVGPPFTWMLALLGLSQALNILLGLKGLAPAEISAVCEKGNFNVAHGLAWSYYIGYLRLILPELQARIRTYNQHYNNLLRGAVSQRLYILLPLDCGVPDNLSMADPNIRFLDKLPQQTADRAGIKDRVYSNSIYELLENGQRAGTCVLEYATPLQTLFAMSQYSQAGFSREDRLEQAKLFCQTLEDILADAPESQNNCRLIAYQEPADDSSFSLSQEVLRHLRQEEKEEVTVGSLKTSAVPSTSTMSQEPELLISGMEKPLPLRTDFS

Compound | EC50
CC(=O)Nc1c[nH]c2ccc(OCCc3cnc(N4CCN(CC(F)(F)F)CC4)c(F)c3)cc12 [Compound 253, N-(5-(2-(5-fluoro-6-(4-(2,2,2-trifluoroethyl)piperazin-1-yl)pyridin-3-yl)ethoxy)-1H-indol-3-yl)acetamide] | 1000 to 5000 nM
CC1(C(=O)Nc2c[nH]c3ccc(O[C@H]4C[C@H](c5ccc(C(F)(F)F)cc5)C4)cc23)CC1 [Compound 261, 1-methyl-N-(5-(trans-3-(4-(trifluoromethyl)phenyl)cyclobutoxy)-1H-indol-3-yl)cyclopropane-1-carboxamide] | 40 to 200 nM
CC(=O)Nc1c[nH]c2ccc(CCOc3ccc(C(F)(F)F)cc3)c(Br)c12 [Compound 546, N-(4-bromo-5-(2-(4-(trifluoromethyl)phenoxy)ethyl)-1H-indol-3-yl)acetamide] | 1000 to 5000 nM
CC(=O)CCc1ccc(OCCc2ccc3[nH]cc(NC(C)=O)c3c2)cc1 [Compound 549, N-(5-(2-(4-(3-oxobutyl)phenoxy)ethyl)-1H-indol-3-yl)acetamide] | 1000 to 5000 nM
N#CC1(C(=O)Nc2c[nH]c3ccc(O[C@H]4C[C@@H](c5ccc(C(F)(F)F)cc5)C4)cc23)CC1 [Compound 362, 1-cyano-N-(5-(cis-3-(4-(trifluoromethyl)phenyl)cyclobutoxy)-1H-indol-3-yl)cyclopropane-1-carboxamide] | 200 to 1000 nM
CC1(C)CC1C(=O)Nc1c[nH]c2ccc(CCOc3ccc(C(F)(F)F)cc3)cc12 (stereo not drawn) [Compound 397, 2,2-dimethyl-N-(5-(2-(4-(trifluoromethyl)phenoxy)ethyl)-1H-indol-3-yl)cyclopropane-1-carboxamide] | 200 to 1000 nM
CC(=O)Nc1c[nH]c2ccc(CCOc3cnc(C(F)(F)F)nc3)cc12 [Compound 184, N-(5-(2-((2-(trifluoromethyl)pyrimidin-5-yl)oxy)ethyl)-1H-indol-3-yl)acetamide] | 5000 to 100000 nM
3-methyl-N-(5-(2-((3aR,5r,6aS)-2-(2,2,2-trifluoroethyl)octahydrocyclopenta[c]pyrrol-5-yl)ethoxy)-1H-indol-3-yl)oxetane-3-carboxamide [Compound 382] | 200 to 1000 nM
O=C(Nc1c[nH]c2ccc(CCNc3ccc(C(F)(F)F)cn3)cc12)C1CCC1 [Compound 134, N-(5-(2-((5-(trifluoromethyl)pyridin-2-yl)amino)ethyl)-1H-indol-3-yl)cyclobutanecarboxamide] | 200 to 1000 nM
CC(=O)Nc1c[nH]c2ccc(CCOC3CCN(CC(F)(F)F)CC3)cc12 [Compound 288, N-(5-(2-((1-(2,2,2-trifluoroethyl)piperidin-4-yl)oxy)ethyl)-1H-indol-3-yl)acetamide] | 5000 to 100000 nM
O=C(Nc1c[nH]c2ccc(OCc3ccc(C(F)(F)F)cc3)cc12)C1COC1 [Compound 381, N-(5-((4-(trifluoromethyl)benzyl)oxy)-1H-indol-3-yl)oxetane-3-carboxamide] | 200 to 1000 nM
CC(=O)Nc1c[nH]c2c(C)cc(OCCC3CCN(CC(F)(F)F)CC3)cc12 [Compound 281, N-(7-methyl-5-(2-(1-(2,2,2-trifluoroethyl)piperidin-4-yl)ethoxy)-1H-indol-3-yl)acetamide] | 5000 to 100000 nM
C=CCc1ccccc1OCCc1ccc2[nH]cc(NC(C)=O)c2c1 [Compound 548, N-(5-(2-(2-allylphenoxy)ethyl)-1H-indol-3-yl)acetamide] | 200 to 1000 nM
O=C(Nc1c[nH]c2ccc(O[C@H]3C[C@H](c4ccc(C(F)(F)F)nc4)C3)cc12)c1ccc(C(F)(F)F)cc1 [Compound 465, 4-(trifluoromethyl)-N-(5-(trans-3-(6-(trifluoromethyl)pyridin-3-yl)cyclobutoxy)-1H-indol-3-yl)benzamide] | 200 to 1000 nM
COC1CC(C(=O)Nc2c[nH]c3ccc(CCOc4ccc(C(F)(F)F)cc4)cc23)C1 (stereo not drawn) [Compound 297, 3-methoxy-N-(5-(2-(4-(trifluoromethyl)phenoxy)ethyl)-1H-indol-3-yl)cyclobutane-1-carboxamide] | 200 to 1000 nM
CC(=O)Nc1c[nH]c2ccc(CCOc3ccc(C(F)(F)F)cc3)nc12 [Compound 255, N-(5-(2-(4-(trifluoromethyl)phenoxy)ethyl)-1H-pyrrolo[3,2-b]pyridin-3-yl)acetamide] | 1000 to 5000 nM
CO[C@H]1C[C@@H](C(=O)Nc2c[nH]c3ccc(O[C@H]4C[C@H](c5ccc(C(F)(F)F)cc5)C4)cc23)C1 [Compound 246, cis-3-methoxy-N-(5-(trans-3-(4-(trifluoromethyl)phenyl)cyclobutoxy)-1H-indol-3-yl)cyclobutane-1-carboxamide] | 40 to 200 nM
O=C(Nc1c[nH]c2ccc(CCOc3ccc(C(F)(F)F)cc3)cc12)[C@H]1C[C@@H](O)C1 [Compound 179, (1S,3S)-3-hydroxy-N-(5-{2-[4-(trifluoromethyl)phenoxy]ethyl}-1H-indol-3-yl)cyclobutane-1-carboxamide] | 200 to 1000 nM
COCCc1ccc(OCCc2ccc3[nH]cc(NC(C)=O)c3c2)cc1 [Compound 461, N-(5-{2-[4-(2-methoxyethyl)phenoxy]ethyl}-1H-indol-3-yl)acetamide] | 200 to 1000 nM

Results, then the compound that gave them:

EC50 | Compound
200 to 1000 nM | CC(C)(C)OC(=O)N1CCC(CCOc2ccc3[nH]cc(NC(=O)C4CCC4)c3c2)CC1 [Compound 140, tert-butyl 4-(2-((3-(cyclobutanecarboxamido)-1H-indol-5-yl)oxy)ethyl)piperidine-1-carboxylate]
200 to 1000 nM | CC(C)(O)CC(=O)Nc1c[nH]c2ccc(OCC[C@@H]3C[C@@H]4CN(CC(F)(F)F)C[C@@H]4C3)cc12 [Compound 523, 3-hydroxy-3-methyl-N-(5-(2-((3aR,5r,6aS)-2-(2,2,2-trifluoroethyl)octahydrocyclopenta[c]pyrrol-5-yl)ethoxy)-1H-indol-3-yl)butanamide]
200 to 1000 nM | CC1(F)CC(C(=O)Nc2c[nH]c3ccc(OCc4ccc(C(F)(F)F)cc4)cc23)C1 (stereo not drawn) [Compound 323, 3-fluoro-3-methyl-N-(5-((4-(trifluoromethyl)benzyl)oxy)-1H-indol-3-yl)cyclobutane-1-carboxamide]
200 to 1000 nM | CC(=O)Nc1c[nH]c2ccc(CCOc3ccccc3)cc12 [Compound 558, N-(5-(2-phenoxyethyl)-1H-indol-3-yl)acetamide]
200 to 1000 nM | CC(C)(O)CC(=O)Nc1c[nH]c2ccc(OCCC3CCN(CC(F)(F)F)CC3)cc12 [Compound 118, 3-hydroxy-3-methyl-N-(5-(2-(1-(2,2,2-trifluoroethyl)piperidin-4-yl)ethoxy)-1H-indol-3-yl)butanamide]
40 to 200 nM | CC(=O)Nc1c[nH]c2ccc(CCOc3cccc(CC(F)(F)F)c3)cc12 [Compound 441, N-(5-{2-[3-(2,2,2-trifluoroethyl)phenoxy]ethyl}-1H-indol-3-yl)acetamide]
40 to 200 nM | COCCOCC(=O)Nc1c[nH]c2ccc(OCC[C@@H]3C[C@@H]4CN(CC(F)(F)F)C[C@@H]4C3)cc12 [Compound 408, 2-(2-methoxyethoxy)-N-(5-(2-((3aR,5r,6aS)-2-(2,2,2-trifluoroethyl)octahydrocyclopenta[c]pyrrol-5-yl)ethoxy)-1H-indol-3-yl)acetamide]
40 to 200 nM | O=C(Nc1c[nH]c2ccc(OCCc3ccc(C(F)(F)F)cc3)cc12)C1CC(F)C1 (stereo not drawn) [Compound 207, 3-fluoro-N-(5-(4-(trifluoromethyl)phenethoxy)-1H-indol-3-yl)cyclobutane-1-carboxamide]
